Measurements as given in patent US8119630B2 (Arrow Therapeutics Limited, priority 2002, dated 2012).

What was measured:
Hep-2 cells = experiment: Toxicity studies (XTT), Hep-2 cells; type: cell-based; parameters: TC50 (6d): unit not given beside the values; details: for TC50 (6d): Table 2, Examples 75 to 82 and 125 to 184, 6d, in µM; for TC50 (2d): Table 2, Examples 75 to 82 and 125 to 184, 2d
Method: (§1) The inner 60 wells of 96 well tissue culture plates were seeded with Hep-2 cells at 4×10^4 cells/well for compound activity and toxicity studies in 100 μl of medium and incubated at 37° C. overnight or until nearing confluency.
Cells were infected with 25 μl RSV previously titrated to give 80% cell kill. To each well 25 μM of test compound were added. The final DMSO concentration was 0.5%. […] Some 0.25 μl/ml PMS were added to stock […] solution, final conc. 25 μM PMS. Then 25 μl warmed XTT/PMS solution were added to each well and incubated for 1 hour at 37° C.

RSV = experiment: XTT assay, RSV-infected Hep-2 cells; type: cell-based, Respiratory Syncytial Virus (RSV); details: Table 2, Examples 75 to 82 and 125 to 184, Hep-2 cells infected with RSV, 6 days at 37° C.
Method: Examples 75 to 82 and 125 to 184 were tested according to the protocol described below.
as §1
Cells were infected with 25 μl RSV previously titrated to give 80% cell kill. To each well 25 μM of test compound were added. The final DMSO concentration was 0.5%. Some 200 μl of sterile distilled water were added to the outer wells of the plate and incubated at 37° C. for 6 days. Some 0.25 μl/ml PMS were added to stock […] solution, final conc. 25 μM PMS. Then 25 μl warmed XTT/PMS solution were added to each well and incubated for 1 hour at 37° C.
Maximum OD450nm reading (uninfected, untreated control cells) corresponded to 100% inhibition. Minimum OD450nm readings (infected control cells) corresponded to 0% inhibition. Log 10 concentration was plotted against OD450nm and IC50 values were calculated from either reading 50% value from graph or using regression analysis.

[1] = human respiratory syncytial virus, 144 h

Row | Molecule | TC50 (6d) (Hep-2 cells) | IC50 (RSV; [1]) | TC50 (2d) (Hep-2 cells) | IC50 (RSV)
1 | O=C(Nc1ccsc1)NC1N=C(c2ccccc2)c2ccccc2NC1=O (stereo not shown) [Example 171, 1-(2-Oxo-5-phenyl-2,3-dihydro-1H-benzo[e][1,4]diazepin-3-yl)-3-thiophene-3-yl-urea] | >50 | 4.8 µM | – | –
2 | CN(C(=O)Nc1ccccc1F)C1N=C(c2ccccc2)c2ccccc2NC1=O (stereo not shown) [Example 146, 3-(2-Fluoro-phenyl)-1-methyl-1-(2-oxo-5-phenyl-2,3-dihydro-1H-benzo[e][1,4]diazepin-3-yl)-urea] | – | 9.5 µM | > 50 µM | –
3 | O=C(NC1N=C(c2ccccc2)c2ccccc2NC1=O)C(=O)c1cccs1 (stereo not shown) [Example 184, 2-Oxo-N-(2-oxo-5-phenyl-2,3-dihydro-1H-benzo[e][1,4]diazepin-3-yl)-2-thiophene-2-yl-acetamide] | – | 9.5 µM | > 50 µM | –
4 | CCCOc1ccccc1C(=O)NC1N=C(c2ccccc2)c2ccccc2NC1=O (stereo not shown) [Example 137, N-(2-Oxo-5-phenyl-2,3-dihydro-1H-benzo[e][1,4]diazepin-3-yl)-2-propoxy-benzamide] | >50 | 8.3 µM | – | –
5 | COc1cc(C(F)(F)F)ccc1C(=O)N[C@H]1N=C(c2ccccc2)c2ccccc2NC1=O [Example 78, (S)-2-Methoxy-N-(2-oxo-5-phenyl-2,3-dihydro-1H-benzo[e][1,4]diazepin-3-yl)-4-trifluoromethyl-benzamide] | 32.5 | 2.7 µM | – | –
6 | Cyclohexanecarboxylic acid [5-(3-methoxy-phenyl)-2-oxo-5-phenyl-2,3-dihydro-1H-benzo[e][1,4]diazepin-3-yl]-amide [Example 165] | >100 | – | > 100 µM | 2 µM
7 | O=C(NC1N=C(c2ccccc2)c2ccccc2NC1=O)c1cn[nH]c1 (stereo not shown) [Example 173, 1H-Pyrazole-4-carboxylic acid (2-oxo-5-phenyl-2,3-dihydro-1H-benzo[e][1,4]diazepin-3-yl)-amide] | 95 | 8.3 µM | – | –
8 | COC(=O)c1ccc(C(=O)NC2N=C(c3ccccc3)c3ccccc3NC2=O)cc1 (stereo not shown) [Example 134, N-(2-Oxo-5-phenyl-2,3-dihydro-1H-benzo[e][1,4]diazepin-3-yl)terephthalamic acid methyl ester] | 77.1 | 6.5 µM | – | –
9 | O=C(NC1N=C(c2ccccc2)c2ccccc2NC1=O)c1cc(F)cc2c1OCOC2 (stereo not shown) [Example 77a, 6-Fluoro-4H-benzo[1,3]dioxine-8-carboxylic acid (2-oxo-5-phenyl-2,3-dihydro-1H-benzo[e][1,4]diazepin-3-yl)-benzamide] | >50 | – | – | 4.6 µM
10 | COc1ccc(C(C)(C)C)cc1C(=O)NC1N=C(c2ccccc2)c2ccccc2NC1=O (stereo not shown) [Example 125, 5-tert-Butyl-2-methoxy-N-(2-oxo-5-phenyl-2,3-dihydro-1H-benzo[e][1,4]diazepin-3-yl)-benzamide] | >50 | 6.1 µM | – | –
11 | 5-Acetyl-2-ethoxy-N-(2-oxo-5-phenyl-2,3-dihydro-1H-benzo[e][1,4]diazepin-3-yl)-benzamide [Example 76a] | 64 | – | – | 3.5 µM
12 | COc1ccc(S(N)(=O)=O)cc1C(=O)NC1N=C(c2ccccc2)c2ccccc2NC1=O (stereo not shown) [Example 143, 2-Methoxy-N-(2-oxo-5-phenyl-2,3-dihydro-1H-benzo[e][1,4]diazepin-3-yl)-5-sylfamoyl-benzamide] | – | – | > 50 µM | 3.8 µM
13 | Cyclohexanecarboxylic acid [5-(3-chloro-phenyl)-2-oxo-5-phenyl-2,3-dihydro-1H-benzo[e][1,4]diazepin-3-yl]-amide [Example 158] | >100 | – | 100 µM | 2 µM
14 | O=C(N[C@H]1N=C(c2ccccc2)c2ccccc2NC1=O)c1cccc2cc[nH]c12 [Example 81b] | 35.6 | – | – | 1.2 µM
15 | Cc1cc(C(=O)NC2N=C(c3ccccc3)c3ccccc3NC2=O)oc1C (stereo not shown) [Example 152, 4,5-Dimethyl-furan-2-carboxylic acid (2-oxo-5-phenyl-2,3-dihydro-1H-benzo[e][1,4]diazepin-3-yl)amide] | 100 | 0.3 µM | > 100 µM | –
16 | 1-(2-Oxo-5-phenyl-2,3-dihydro-1H-benzo[e][1,4]diazepin-3-yl)-3-m-tolyl-urea [Example 141] | >50 | – | – | 4.3 µM
17 | O=C(NC1N=C(c2ccccc2)c2ccccc2NC1=O)C(O)Cc1ccccc1 (stereo not shown) [Example 144, 2-Hydroxy-N-(2-oxo-5-phenyl-2,3-dihydro-1H-benzo[e][1,4]diazepin-3-yl)-3-phenyl-propionamide] | – | 5.5 µM | > 50 µM | –
18 | CCNC(=O)NC1N=C(c2ccccc2)c2ccccc2NC1=O (stereo not shown) [Example 150, 1-Ethyl-3-(2-oxo-5-phenyl-2,3-dihydro-1H-benzo[e][1,4]diazepin-3-yl)-urea] | >100 | 2 µM | > 100 µM | –
19 | CSc1ccccc1C(=O)NC1N=C(c2ccccc2)c2ccccc2NC1=O (stereo not shown) [Example 142, 2-Methylsulfanyl-N-(2-oxo-5-phenyl-2,3-dihydro-1H-benzo[e][1,4]diazepin-3-yl)-benzamide] | >50 | 9.4 µM | – | –
20 | COC(=O)c1ccc(C(=O)NC2N=C(c3ccccc3)c3ccccc3NC2=O)c(OC)c1 (stereo not shown) [Example 139, 3-Methoxy-N-(2-oxo-5-phenyl-2,3-dihydro-H-benzo[e][1,4]diazepin-3-yl)-terephthalamic acid methyl ester] | 98 | – | – | 9.2 µM
21 | CC(C)COC(=O)NC1N=C(c2ccccc2)c2ccccc2NC1=O (stereo not shown) [Example 183, (2-Oxo-5-phenyl-2,3-dihydro-1H-benzo[e][1,4]diazepin-3-yl)-carbamic acid isobutyl ester] | >50 | 9.88 µM | – | –
22 | Piperidine-4-carboxylic acid [5-(3-methoxy-phenyl)-2-oxo-5-phenyl-2,3-dihydro-1H-benzo[e][1,4]diazepin-3-yl]-amide [Example 167] | >100 | – | > 100 µM | 9 µM
23 | CCOC(=O)NC1N=C(c2ccccc2)c2ccccc2NC1=O (stereo not shown) [Example 182, (2-Oxo-5-phenyl-2,3-dihydro-1H-benzo[e][1,4]diazepin-3-yl)-carbamic acid ethyl ester] | >50 | 10 µM | – | –
24 | O=C(Nc1cccc(F)c1)NC1N=C(c2ccccc2)c2ccccc2NC1=O (stereo not shown) [Example 128, 1-(3-Fluoro-phenyl)-3-(2-oxo-5-phenyl-2,3-dihydro-1H-benzo[e][1,4]diazepin-3-yl)-urea] | >50 | 6.1 µM | – | –
25 | CC(C)(C)NC(=O)NC1N=C(c2ccccc2)c2ccccc2NC1=O (stereo not shown) [Example 148, 1-tert-Butyl-3-(2-oxo-5-phenyl-2,3-dihydro-1H-benzo[e][1,4]diazepin-3-yl)-urea] | >100 | 5 µM | > 100 µM | –
26 | COc1cc(SC)ccc1C(=O)NC1N=C(c2ccccc2)c2ccccc2NC1=O (stereo not shown) [Example 132, 2-Methoxy-4-methylsulfanyl-N-(2-oxo-5-phenyl-2,3-dihydro-1H-1-benzo[e][1,4]diazepin-3-yl)-benzamide] | >50 | – | – | 6.3 µM
